Results on eight molecules are retold here after patent US9499553B2 (CHUGAI SEIYAKU KABUSHIKI KAISHA, priority 2013, dated 2016).

Holding throughout (assay type): cell-based
Assay [1] has as its target T1, human PiT-1 (Homo sapiens, UniProt Q8WUM9).
T1 construct: expressed in transfected cells; host or cells: CHO cells
T1 sequence (Q8WUM9 1-679): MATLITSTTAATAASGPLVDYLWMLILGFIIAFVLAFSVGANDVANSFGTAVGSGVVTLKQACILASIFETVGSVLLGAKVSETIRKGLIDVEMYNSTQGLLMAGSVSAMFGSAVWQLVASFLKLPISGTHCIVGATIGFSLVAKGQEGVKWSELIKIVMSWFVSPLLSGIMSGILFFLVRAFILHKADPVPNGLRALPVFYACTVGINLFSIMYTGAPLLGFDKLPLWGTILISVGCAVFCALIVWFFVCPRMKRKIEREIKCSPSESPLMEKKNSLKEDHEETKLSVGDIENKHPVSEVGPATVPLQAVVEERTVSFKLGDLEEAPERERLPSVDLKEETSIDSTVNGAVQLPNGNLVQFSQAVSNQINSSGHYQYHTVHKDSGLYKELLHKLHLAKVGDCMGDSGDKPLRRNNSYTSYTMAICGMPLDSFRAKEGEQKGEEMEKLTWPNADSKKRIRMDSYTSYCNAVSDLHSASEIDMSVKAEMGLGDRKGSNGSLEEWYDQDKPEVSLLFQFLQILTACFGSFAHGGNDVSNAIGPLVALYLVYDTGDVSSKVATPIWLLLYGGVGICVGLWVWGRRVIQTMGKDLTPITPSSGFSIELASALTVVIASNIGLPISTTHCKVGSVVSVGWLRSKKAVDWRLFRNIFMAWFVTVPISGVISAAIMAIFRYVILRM
Briefly: Inhibitory effect on 33PO4 uptake into human PiT-1-expressing CHO cells. To be noted: compound 0.24, 1.2, 6 or 30 μM, pH 6.5, read-out: IC50 against 33PO4 uptake into human PiT-1-expressing cells. The procedure: Test Example 3: Inhibitory Effect on ^33PO4 Uptake into Human PiT-1-Expressing Cell
(§1) CHO cells were transfected with human PiT-1 expression plasmids or empty vectors to prepare human PiT-1-expressing cells and empty vector-expressing cells. The human PiT-1-expressing cells or the empty vector-expressing cells were inoculated to a 96-well plate and incubated overnight in a CO2 incubator. […] After a given time, a 1/20 volume of buffer A containing ^33PO4 was added thereto and reacted at room temperature. After washing with ice-cold buffer A, a liquid scintillator was added to each reaction mixture, and the amount of ^33PO4 uptake was measured using TopCount. The rate of inhibition was determined according to the following expression: Rate (%) of inhibition=(1−(Amount of ^33PO4 uptake in the compound-supplemented well containing the human PiT-1-expressing cells−Amount of ^33PO4 uptake in the compound-supplemented well containing the empty vector-expressing cells)/(Amount of ^33PO4 uptake in the DMSO-supplemented well containing the human PiT-1-expressing cells −Amount of ^33PO4 uptake in the DMSO-supplemented well containing the empty vector-expressing cells))×100

The target of assay [2] is T2, human NaPi-IIb (Homo sapiens, UniProt O95436).
T2 construct: expressed in transfected cells
T2 sequence (O95436 1-690): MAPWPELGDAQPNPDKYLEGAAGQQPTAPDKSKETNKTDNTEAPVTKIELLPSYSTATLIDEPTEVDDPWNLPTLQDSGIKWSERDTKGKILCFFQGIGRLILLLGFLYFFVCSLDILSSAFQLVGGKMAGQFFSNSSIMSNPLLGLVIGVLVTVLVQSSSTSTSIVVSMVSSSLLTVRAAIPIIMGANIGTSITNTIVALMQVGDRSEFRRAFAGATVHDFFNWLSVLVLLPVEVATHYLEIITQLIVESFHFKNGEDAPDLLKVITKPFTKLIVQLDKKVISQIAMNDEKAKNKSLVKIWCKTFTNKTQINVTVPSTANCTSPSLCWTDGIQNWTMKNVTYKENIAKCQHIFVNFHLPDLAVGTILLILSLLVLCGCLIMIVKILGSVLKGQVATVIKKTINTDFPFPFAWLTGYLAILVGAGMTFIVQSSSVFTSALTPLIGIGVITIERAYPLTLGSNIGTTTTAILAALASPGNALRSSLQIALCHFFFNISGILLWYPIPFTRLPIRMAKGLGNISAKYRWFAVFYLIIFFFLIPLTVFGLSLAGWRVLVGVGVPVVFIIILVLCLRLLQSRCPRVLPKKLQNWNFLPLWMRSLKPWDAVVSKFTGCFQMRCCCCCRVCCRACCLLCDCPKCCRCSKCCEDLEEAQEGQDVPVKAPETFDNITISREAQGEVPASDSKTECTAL
Briefly: Inhibitory effect on 33PO4 uptake into human NaPi-IIb-expressing CHO cells. The procedure, abridged: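 Stable human NaPi-IIb CHO line (G418-selected), plated and cultured overnight; ³³PO4 added in buffer A and uptake run at room temperature. Cells washed with ice-cold buffer A, then uptake counted by liquid scintillation.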

Assay [3] has as its target T3, human PiT-2 (Homo sapiens, UniProt Q08357).
T3 construct: expressed in transfected cells; host or cells: CHO cells
T3 sequence (Q08357 1-652): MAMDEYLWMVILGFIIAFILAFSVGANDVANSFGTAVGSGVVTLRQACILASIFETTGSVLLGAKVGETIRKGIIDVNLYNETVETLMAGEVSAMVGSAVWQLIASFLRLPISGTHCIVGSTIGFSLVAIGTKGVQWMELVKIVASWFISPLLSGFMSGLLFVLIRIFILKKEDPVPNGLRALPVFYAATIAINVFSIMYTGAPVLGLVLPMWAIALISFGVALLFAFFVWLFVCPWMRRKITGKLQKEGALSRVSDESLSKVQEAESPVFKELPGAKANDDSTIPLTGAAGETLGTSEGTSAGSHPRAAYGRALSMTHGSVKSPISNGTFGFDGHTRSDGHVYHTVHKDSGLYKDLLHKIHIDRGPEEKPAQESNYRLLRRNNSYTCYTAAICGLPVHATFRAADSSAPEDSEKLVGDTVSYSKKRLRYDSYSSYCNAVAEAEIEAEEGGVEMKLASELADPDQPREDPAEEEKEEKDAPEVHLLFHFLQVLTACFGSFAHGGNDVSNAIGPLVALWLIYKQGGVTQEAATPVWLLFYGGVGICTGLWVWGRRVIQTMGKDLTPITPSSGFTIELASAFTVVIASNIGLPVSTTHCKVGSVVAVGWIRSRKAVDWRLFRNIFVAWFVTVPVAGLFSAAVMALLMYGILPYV
Description: Inhibitory effect on 33PO4 uptake into human PiT-2-expressing CHO cells. To be noted: pH 6.5, read-out: IC50 against 33PO4 uptake into human PiT-2-expressing cells. The procedure:
Test Example 4: Inhibitory Effect on ^33PO4 Uptake into Human PiT-2-Expressing Cell
as §1, with “PiT-2” for “PiT-1”, “PiT-2-expressing” for “PiT-1-expressing”

Where two headings read alike, the source gives them in different places.

By IC50 is commonly meant the point on the concentration scale where inhibition reaches its midpoint. For `CN1[C@@H](C(C)(C)C)C(O)=C(C(=O)Nc2ccc(Cl)cc2-c2ccc(C(F)(F)F)nc2)C(=O)N1Cc1ccc(OCCN2CCOCC2)c(F)c1F` [Example 267, (3S)-3-tert-Butyl-N-[4-chloro-2-[6-(trifluoromethyl)pyridin-3-yl]phenyl]-1-[[2,3-difluoro-4-(2-morpholin-4-ylethoxy)phenyl]methyl]-4-hydroxy-2-methyl-6-oxo-3H-pyridazine-5-carboxamide], the IC50 in assay [1] amounted to 4.1 µM; in assay [2] (read-out: IC50), 7.5 µM; in assay [3] it was 4.7 µM.
In the case of `C[C@]12CCCN1N(Cc1ccc(C#CCCCC(=O)O)c(F)c1F)C(=O)C(C(=O)Nc1ccc(C(F)(F)F)cc1-c1cc(C(F)(F)F)ncn1)=C2O` [Example 129, 6-[4-[[(4aR)-4-Hydroxy-4a-methyl-2-oxo-3-[[4-(trifluoromethyl)-2-[6-(trifluoromethyl)pyrimidin-4-yl]phenyl]carbamoyl]-6,7-dihydro-5H-pyrrolo[1,2-b]pyridazin-1-yl]methyl]-2,3-difluorophenyl]hex-5-ynoic acid], the values for the IC50 in assay [1], in assay [2] (read-out: IC50) and in assay [3] were 6.5 µM, 13.7 µM and 8.7 µM, respectively.
Regarding `C[C@]12CCCN1N(Cc1ccc(OCCCOC[C@H](O)CO)c(F)c1F)C(=O)C(C(=O)Nc1ccc(C(F)(F)F)cc1-c1ccc(C(F)(F)F)nc1)=C2O` [Example 147, (4aR)-1-[[4-[3-[(2R)-2,3-Dihydroxypropoxy)propoxy]-2,3-difluorophenyl]methyl]-4-hydroxy-4a-methyl-2-oxo-N-[4-(trifluoromethyl)-2-[6-(trifluoromethyl)pyridin-3-yl]phenyl]-6,7-dihydro-5H-pyrrolo [1,2-b]pyridazine-3-carboxamide], the IC50 in assay [1] was 4.4 µM; in assay [2] (read-out: IC50), 21.5 µM; in assay [3] it was 8.4 µM.
Turning to `CN1N(Cc2ccc(OCCCCC(=O)O)c(F)c2F)C(=O)C(C(=O)Nc2ccc(C(F)(F)F)cc2-c2cc(C(F)(F)F)ncn2)=C(O)C12CCCC2` [Example 333, 5-[2,3-Difluoro-4-[[10-hydroxy-6-methyl-8-oxo-9-[[4-(trifluoromethyl)-2-[6-(trifluoromethyl)pyrimidin-4-yl]phenyl]carbamoyl]-6,7-diazaspiro[4.5]dec-9-en-7-yl]methyl]phenoxy]pentanoic acid], the IC50 amounted to 3.6 µM in assay [1], 19.5 µM in assay [2] (read-out: IC50) and 10.4 µM in assay [3].
Regarding `CN(C)CC(C)(C)COc1ccc(CN2C(=O)C(C(=O)Nc3ccc(C(F)(F)F)cc3-c3cc(C(F)(F)F)ncn3)=C(O)C3(CCCC3)N2C)c(F)c1F` [Example 414, 7-(4-(3-(Dimethylamino)-2,2-dimethylpropoxy)-2,3-difluorobenzyl)-10-hydroxy-6-methyl-8-oxo-N-(4-(tri-fluoromethyl)-2-(6-(trifluoromethyl)pyrimidin-4-yl)phenyl)-6,7-diazaspiro [4.5]dec-9-ene-9-carboxamide], the IC50 in assay [1] was 1.9 µM; in assay [2] (read-out: IC50 against 33PO4 uptake into human NaPi-IIb-expressing cells), 4.6 µM; in assay [3] it was 1.2 µM.
As to `C[C@]12CCCN1N(Cc1ccc(OCCCCOC[C@H](O)CO)c(F)c1F)C(=O)C(C(=O)Nc1ccc(C(F)(F)F)cc1-c1cc(C(F)(F)F)ncn1)=C2O` [Example 152, (4aR)-1-[[4-[4-[(2R)-2,3-Dihydroxypropoxy]butoxy]-2,3-difluorophenyl]methyl]-4-hydroxy-4a-methyl-2-oxo-N-[4-(trifluoromethyl)-2-[6-(trifluoromethyl)pyrimidin-4-yl]phenyl]-6,7-dihydro-5H-pyrrolo [1,2-b]pyridazine-3-carboxamide], the IC50 in assay [1] is 5.3 µM; in assay [2] (read-out: IC50), 20.6 µM; in assay [3], 3.5 µM.
For `CN1[C@@H](C(C)(C)C)C(O)=C(C(=O)Nc2ccc(C(F)(F)F)cc2-c2cc(C(F)(F)F)ncn2)C(=O)N1Cc1ccc(OCCN2CCOCC2)c(F)c1F` [Example 264, (3S)-3-tert-Butyl-1-[[2,3-difluoro-4-(2-morpholin-4-ylethoxy)phenyl]methyl]-4-hydroxy-2-methyl-6-oxo-N-[4-(trifluoromethyl)-2-[6-(trifluoromethyl)pyrimidin-4-yl]phenyl]-3H-pyridazine-5-carboxamide] the same measures were 4.6 µM, 19.4 µM and 3.8 µM.
On the same counts, the results for `CSc1ccc(-c2cc(Cl)ccc2NC(=O)C2=C(O)[C@H](C(C)(C)C)N(C)N(Cc3ccc(OCCN4CCOCC4)c(F)c3F)C2=O)cn1` [Example 269, (3S)-3-tert-Butyl-N-[4-chloro-2-(6-methylsulfanyl-pyridin-3-yl)phenyl]-1-[[2,3-difluoro-4-(2-morpholin-4-ylethoxy)phenyl]methyl]-4-hydroxy-2-methyl-6-oxo-3H-pyridazine-5-carboxamide] are 7.9 µM, 4.5 µM and 10.6 µM.
